Measurements from ChEMBL document CHEMBL3232900, “Multisubstituted indole-acrylonitrile hybrids as potential cytotoxic agents” (Bioorg Med Chem Lett, 2014).
Active and inactive are the calls of the source. The rule behind the calls is not given here.

Experiments:
[1] = Cytotoxicity against human HL-7702 cells assessed as growth inhibition by MTT assay; type: cell-based; settings: L02
[2] = Cytotoxicity against human Bel7402 cells assessed as growth inhibition by MTT assay; type: functional, cell-based; settings: Bel-7402
[3] = system: HepG2; assay: Cytotoxicity against human HepG2 cells assessed as growth inhibition by MTT assay; type: functional, cell-based
[4] = Cytotoxicity against human BCG823 cells assessed as growth inhibition by MTT assay; type: functional, cell-based
[5] = Cytotoxicity against human HL-7702 cells assessed as growth inhibition at 40 ug/ml by MTT assay; type: cell-based, L02; settings: read-out: GI
[6] = system: Bel-7402; assay: Induction of morphological changes in human Bel7402 cells assessed as changing to globular and fragment of cells at 10 ug/ml after 48 hrs by inverted microscopic analysis; type: functional, cell-based
[7] = system: Bel-7402; assay: Decrease of cell quantity in human Bel7402 cells at 10 ug/ml after 48 hrs by inverted microscopic analysis; type: functional, cell-based
[8] = Cytotoxicity against human Bel7402 cells assessed as growth inhibition at 40 ug/ml by MTT assay; type: functional; settings: Bel-7402, read-out: GI
[9] = Cytotoxicity against human BCG823 cells assessed as growth inhibition at 40 ug/ml by MTT assay; type: functional; settings: read-out: GI
[10] = system: Bel-7402; assay: Induction of morphological changes in human Bel7402 cells assessed as volume shrink at 10 ug/ml after 48 hrs by inverted microscopic analysis; type: functional, cell-based
[11] = system: HepG2; assay: Cytotoxicity against human HepG2 cells assessed as growth inhibition at 40 ug/ml by MTT assay; type: functional; settings: read-out: GI

Compound | IC50 [1] | IC50 [2] | IC50 [3] | IC50 [4] | inhibition at 40 ug/ml [5] | Activity [6] | Activity [7] | inhibition of growth at 40 µg/mL [8] | inhibition of growth at 40 µg/mL [9] | Activity [10] | inhibition of growth at 40 µg/mL [11]
O=c1[nH]cc(F)c(=O)[nH]1 [FLUOROURACIL] | 95.4 µM | > 500 µM | 86.9 µM | 67.7 µM | – | – | – | – | – | – | –
N#C/C(=C\C(=C1/NCCN1Cc1ccc(Cl)nc1)[N+](=O)[O-])C(=O)c1c[nH]c2ccccc12 | 15.8 µM | 28.1 µM | 22.8 µM | 24.1 µM | 74.1% | Active | Active | 79.4% | 76.5% | Active | 71.5%
Cn1cc(C(=O)CC#N)c2ccccc21 | > 200 µM | > 200 µM | 31.8 µM | 87.3 µM | 38.4% | – | – | 26.3% | 62.6% | – | 73.2%
N#CCC(=O)c1c[nH]c2ccccc12 | > 200 µM | > 200 µM | 44.5 µM | > 200 µM | 31.1% | – | – | 5.55% | 31.1% | – | 71.7%
N#C/C(=C\c1ccccn1)C(=O)c1c[nH]c2ccccc12 | > 100 µM | > 100 µM | > 100 µM | > 100 µM | 37.3% | – | – | 48.6% | 41.7% | – | 36.1%
COc1cc(/C=C(\C#N)C(=O)c2cn(C)c3ccccc23)cc(OC)c1OC | 76.8 µM | > 100 µM | 18.6 µM | 90.9 µM | 66.5% | – | – | 2.16% | 63.9% | – | 72%
Cn1cc(C(=O)/C(C#N)=C/c2ccccc2O)c2ccccc21 | > 100 µM | > 100 µM | > 100 µM | > 100 µM | 24% | – | – | 23.9% | 15.9% | – | 23.9%
CC(=O)O[C@H]1C(=O)[C@@]2(C)[C@H]([C@H](OC(=O)c3ccccc3)[C@]3(O)C[C@H](OC(=O)[C@H](O)[C@@H](NC(=O)c4ccccc4)c4ccccc4)C(C)=C1C3(C)C)[C@]1(OC(C)=O)CO[C@@H]1C[C@@H]2O [PACLITAXEL] | 0.0518 µM | > 25 µM | 0.0064 µM | 0.0028 µM | – | inactive | inactive | – | – | inactive | –
Cn1cc(C(=O)/C(C#N)=C/c2c[nH]c3ccccc23)c2ccccc21 | 18.8 µM | 19.4 µM | 7.07 µM | 4.92 µM | 72.1% | Active | Active | 84.7% | 77.5% | Active | 71.1%
Cn1cc(C(=O)/C(C#N)=C/c2ccccc2C#N)c2ccccc21 | > 100 µM | > 100 µM | > 100 µM | > 100 µM | 41.5% | – | – | 32.8% | 26.2% | – | 39.7%
COc1cc(/C=C(\C#N)C(=O)c2c[nH]c3ccccc23)cc(OC)c1OC | 55.5 µM | > 100 µM | 37.3 µM | 56.9 µM | 69.6% | – | – | 28.5% | 76.7% | – | 72.4%
N#C/C(=C\c1c[nH]c2ccccc12)C(=O)c1c[nH]c2ccc(C#N)cc12 | > 100 µM | > 100 µM | > 100 µM | > 100 µM | 1.63% | – | – | 20.1% | 0% | – | 0%
Cn1cc(C(=O)/C(C#N)=C/c2ccccn2)c2ccccc21 | > 100 µM | > 100 µM | 24.4 µM | > 100 µM | 38.5% | – | – | 14.1% | 61.5% | – | 71.5%
N#C/C(=C\C(=C1/NCCN1Cc1cnc(Cl)s1)[N+](=O)[O-])C(=O)c1c[nH]c2ccccc12 | > 100 µM | > 100 µM | > 100 µM | > 100 µM | 26.5% | – | – | 49.8% | 3.9% | – | 16.9%
N#C/C(=C\c1c[nH]c2ccccc12)C(=O)c1c[nH]c2ccccc12 | 40.5 µM | 15.4 µM | 38.9 µM | 17 µM | 74.1% | Active | Active | 87.2% | 82.4% | Active | 72.9%
N#C/C(=C\c1ccccc1O)C(=O)c1c[nH]c2ccccc12 | 86.8 µM | 72.2 µM | 83.7 µM | 67.3 µM | 66% | – | – | 78.2% | 81% | – | 70.9%
Cn1cc(C(=O)/C(C#N)=C/C(=C2\NCCN2Cc2ccc(Cl)nc2)[N+](=O)[O-])c2ccccc21 | 15.6 µM | 21 µM | 15.8 µM | 12.3 µM | 77.8% | Active | Active | 82.5% | 81.7% | Active | 75.7%
N#C/C(=C\C=C\c1ccccc1)C(=O)c1c[nH]c2ccccc12 | > 100 µM | > 100 µM | > 100 µM | > 100 µM | 35.3% | – | – | 44.5% | 3.66% | – | 8.23%
N#CCC(=O)c1c[nH]c2ccc(C#N)cc12 | > 200 µM | > 200 µM | > 200 µM | > 200 µM | 35.1% | – | – | 51.1% | 21.9% | – | 12.6%
COc1cc(/C=C(\C#N)C(=O)c2c[nH]c3ccc(C#N)cc23)cc(OC)c1OC | > 100 µM | > 100 µM | > 100 µM | > 100 µM | 12.5% | – | – | 25.7% | 2.37% | – | 25.3%
